From patent US20260007758A1, “SO[…]-2 RECEPTOR (SST2R) NON-PEPTIDE DRUG CONJUGATES AND USES THEREOF” (Crinetics Pharmaceuticals, Inc., priority 2024, published 2026)

How the values were obtained:
Assay type in all cases: cell-based
[1] = target: T1, SST2 (Homo sapiens, UniProt P30874); experiment: PathHunter CHO-K1 SST2 Internalization Assay; settings: PathHunter CHO-K1 SST2 cells; 90 min at 37 C; luminescence; read-out: Internalization EC50
T1 construct: host or cells: PathHunter CHO-K1 SST2 cells
Procedure, shortened: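 Four-parameter nonlinear fits of background-corrected luminescence (duplicate means) gave IC50s. NDCs were serially diluted 1:3 over 11 points from a 10 uM final top concentration and incubated 90 min at 37 C with human SST2 CHO-K1 cells plated 48 h earlier at 2500/well. Beta-Glo read-out developed 60 min at RT.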

[2] = target: T2, human somatostatin receptor subtype 2 (Homo sapiens, UniProt P30874); experiment: Functional assay for SSTR2 agonists (HTRF cAMP); settings: CHO-K1 cells stably expressing human SST2; NKH477-stimulated cAMP; 20 min at 37 C; read-out: hSST2 cAMP Avg EC50
T2 construct: expressed in transfected cells
Procedure, shortened: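 Agonist activity read as fall in intracellular cAMP: HTRF 665/620 nm ratio regressed to a cAMP standard curve, EC50 fitted. Stable human SSTR2 CHO-K1 cells exposed 20 min at 37 °C to compound, final concentrations typically 0-10,000 nM.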

[3] = system: NCI-H524 human small cell lung cancer cells; experiment: H524 assay: inhibition of cell proliferation (CellTiter Glo); settings: 2 h treatment, washout, additional 70 h incubation
Procedure, shortened: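 Proliferation was measured by CellTiter Glo 70 h after a washout that followed a 2 h pulse of NDC. Doses were an 11-point, two-fold dilution series from 1 uM. IC50 was fitted with a four-parameter model to luminescence-based % inhibition relative to control cells.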

T1 sequence (P30874 whole entry): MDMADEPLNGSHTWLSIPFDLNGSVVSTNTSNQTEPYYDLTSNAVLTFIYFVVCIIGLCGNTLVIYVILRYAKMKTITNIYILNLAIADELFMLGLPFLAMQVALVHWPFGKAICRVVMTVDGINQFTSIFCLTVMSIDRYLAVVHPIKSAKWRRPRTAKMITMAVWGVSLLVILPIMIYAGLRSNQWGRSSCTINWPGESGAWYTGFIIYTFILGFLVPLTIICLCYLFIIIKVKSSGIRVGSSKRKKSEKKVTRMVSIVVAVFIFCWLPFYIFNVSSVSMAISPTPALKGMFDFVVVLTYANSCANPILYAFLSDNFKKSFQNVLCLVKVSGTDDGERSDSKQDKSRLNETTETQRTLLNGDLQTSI
T2 sequence (P30874 whole entry): as above

SMILES	EC50 [1]	EC50 [2]	EC50 [3]
CC[C@H](C)[C@@H]([C@@H](CC(=O)N1CCC[C@H]1[C@H](OC)[C@@H](C)C(=O)N[C@H](C)[C@@H](O)c1ccccc1)OC)N(C)C(=O)[C@@H](NC(=O)[C@H](C(C)C)N(C)C(=O)OCc1ccc(NC(=O)[C@H](CCCNC(N)=O)NC(=O)[C@@H](NC(=O)c2cc(NCCOCCC(=O)NCCNc3ncc(-c4cc(C)cc(F)c4)c(N4CCC(N)CC4)c3-c3nc4ccc(Cl)cc4[nH]3)cc(C(=O)NCCN(CC(=O)O)CC(=O)O)c2)C(C)C)cc1C(=O)NCCN)C(C)C [Compound 58]	14 nM	0.26 nM	910 nM
CC[C@H](C)[C@@H]([C@@H](CC(=O)N1CCC[C@H]1[C@H](OC)[C@@H](C)C(=O)N[C@H](C)[C@@H](O)c1ccccc1)OC)N(C)C(=O)[C@@H](NC(=O)[C@H](C(C)C)N(C)C(=O)OCc1ccc(NC(=O)[C@H](CCCNC(N)=O)NC(=O)[C@@H](NC(=O)CCOCCOCCOCCOCCC(=O)NCCNc2ncc(-c3cc(C)cc(F)c3)c(N3CCC(N)CC3)c2-c2nc3ccc(Cl)cc3[nH]2)C(C)C)cc1C(=O)N1CC(N)C1)C(C)C [Compound 59]	2 nM	0.25 nM	260 nM
CC[C@H](C)[C@@H]([C@@H](CC(=O)N1CCC[C@H]1[C@H](OC)[C@@H](C)C(=O)N[C@H](C)[C@@H](O)c1ccccc1)OC)N(C)C(=O)[C@@H](NC(=O)[C@H](C(C)C)N(C)C(=O)OCc1ccc(NC(=O)[C@H](CCCNC(N)=O)NC(=O)[C@@H](NC(=O)[C@H](CCC(=O)O)NC(=O)CCOCCC(=O)NCCNc2ncc(-c3cc(C)cc(F)c3)c(N3CCC(N)CC3)c2-c2nc3ccc(Cl)cc3[nH]2)C(C)C)cc1C(=O)NCCN(C)C)C(C)C [Compound 64]	2.9 nM	0.12 nM	11 nM
CC[C@H](C)[C@@H]([C@@H](CC(=O)N1CCC[C@H]1[C@H](OC)[C@@H](C)C(=O)N[C@H](C)[C@@H](O)c1ccccc1)OC)N(C)C(=O)[C@@H](NC(=O)[C@H](C(C)C)N(C)C(=O)OCc1ccc(NC(=O)[C@H](CCCNC(N)=O)NC(=O)[C@@H](NC(=O)[C@H](CCC(=O)O)NC(=O)CCOCCOCCOCCOCCC(=O)NCCNc2ncc(-c3cc(C)cc(F)c3)c(N3CCC(N)CC3)c2-c2nc3ccc(Cl)cc3[nH]2)C(C)C)cc1C(=O)N1CC(N)C1)C(C)C [Compound 65]	3.4 nM	0.074 nM	17 nM
CC[C@H](C)[C@@H]([C@@H](CC(=O)N1CCC[C@H]1[C@H](OC)[C@@H](C)C(=O)N[C@H](C)[C@@H](O)c1ccccc1)OC)N(C)C(=O)[C@@H](NC(=O)[C@H](C(C)C)N(C)C(=O)OCc1ccc(NC(=O)[C@H](C)NC(=O)[C@@H](NC(=O)[C@H](CCc2nnn[nH]2)NC(=O)CCOCCC(=O)NCCNc2ncc(-c3cc(C)cc(F)c3)c(N3CCC(N)CC3)c2-c2nc3ccc(Cl)cc3[nH]2)C(C)C)cc1C(=O)NCCN)C(C)C [Compound 66]	5.6 nM	0.14 nM	6.8 nM
CC[C@H](C)[C@@H]([C@@H](CC(=O)N1CCC[C@H]1[C@H](OC)[C@@H](C)C(=O)N[C@H](C)[C@@H](O)c1ccccc1)OC)N(C)C(=O)[C@@H](NC(=O)[C@H](C(C)C)N(C)C(=O)OCc1ccc(NC(=O)[C@H](CCCNC(N)=O)NC(=O)[C@@H](NC(=O)CCOCCOCCOCCOCCC(=O)NCCNc2ncc(-c3cc(C)cc(F)c3)c(N3CCC(N)CC3)c2-c2nc3ccc(Cl)cc3[nH]2)C(C)C)cc1C(=O)N1CC(C(=O)O)C1)C(C)C [Compound 67]	5.5 nM	0.086 nM	85 nM
CC[C@H](C)[C@@H]([C@@H](CC(=O)N1CCC[C@H]1[C@H](OC)[C@@H](C)C(=O)N[C@H](C)[C@@H](O)c1ccccc1)OC)N(C)C(=O)[C@@H](NC(=O)[C@H](C(C)C)N(C)C(=O)OCc1ccc(NC(=O)[C@H](C)NC(=O)[C@@H](NC(=O)CCOCCOCCOCCOCCC(=O)NCCNc2ncc(-c3cc(C)cc(F)c3)c(N3CCC(N)CC3)c2-c2nc3ccc(Cl)cc3[nH]2)C(C)C)cc1C(=O)NCC(=O)O)C(C)C [Compound 69]	5.6 nM	0.16 nM	36 nM
CC[C@H](C)[C@@H]([C@@H](CC(=O)N1CCC[C@H]1[C@H](OC)[C@@H](C)C(=O)N[C@H](C)[C@@H](O)c1ccccc1)OC)N(C)C(=O)[C@@H](NC(=O)[C@H](C(C)C)N(C)C(=O)OCc1ccc(NC(=O)[C@H](CCCNC(N)=O)NC(=O)[C@@H](NC(=O)CN(C)C(=O)CCOCCC(=O)NCCNc2ncc(-c3cc(C)cc(F)c3)c(N3CCC(N)CC3)c2-c2nc3ccc(Cl)cc3[nH]2)C(C)C)cc1C(=O)NCC(=O)O)C(C)C [Compound 71]	7.5 nM	0.14 nM	100 nM
CC[C@H](C)[C@@H]([C@@H](CC(=O)N1CCC[C@H]1[C@H](OC)[C@@H](C)C(=O)N[C@H](C)[C@@H](O)c1ccccc1)OC)N(C)C(=O)[C@@H](NC(=O)[C@H](C(C)C)N(C)C(=O)OCc1ccc(NC(=O)[C@H](CCCNC(N)=O)NC(=O)[C@@H](NC(=O)CCCCC(=O)NCCNc2ncc(-c3cc(C)cc(F)c3)c(N3CCC(N)CC3)c2-c2nc3ccc(Cl)cc3[nH]2)C(C)C)cc1C(=O)NCC(=O)O)C(C)C [Compound 72]	4.7 nM	0.11 nM	40 nM
CC[C@H](C)[C@@H]([C@@H](CC(=O)N1CCC[C@H]1[C@H](OC)[C@@H](C)C(=O)N[C@H](C)[C@@H](O)c1ccccc1)OC)N(C)C(=O)[C@@H](NC(=O)[C@H](C(C)C)N(C)C(=O)OCc1ccc(NC(=O)[C@H](CCCNC(N)=O)NC(=O)[C@@H](NC(=O)C[C@@H](N)C(=O)NCCOCCC(=O)NCCNc2ncc(-c3cc(C)cc(F)c3)c(N3CCC(N)CC3)c2-c2nc3ccc(Cl)cc3[nH]2)C(C)C)cc1C(=O)N1CC(C(=O)O)C1)C(C)C [Compound 73]	3.1 nM	0.06 nM	110 nM
CC[C@H](C)[C@@H]([C@@H](CC(=O)N1CCC[C@H]1[C@H](OC)[C@@H](C)C(=O)N[C@H](C)[C@@H](O)c1ccccc1)OC)N(C)C(=O)[C@@H](NC(=O)[C@H](C(C)C)N(C)C(=O)OCc1ccc(NC(=O)[C@H](CCCNC(N)=O)NC(=O)[C@@H](NC(=O)CCOCCOCCC(=O)NCCNc2ncc(-c3cc(C)cc(F)c3)c(N3CCC(N)CC3)c2-c2nc3ccc(Cl)cc3[nH]2)C(C)C)cc1C(=O)NCCNC(=O)CCOCCOCCOCCOCCC(=O)O)C(C)C [Compound 74]	4.3 nM	0.19 nM	17 nM
CC[C@H](C)[C@@H]([C@@H](CC(=O)N1CCC[C@H]1[C@H](OC)[C@@H](C)C(=O)N[C@H](C)[C@@H](O)c1ccccc1)OC)N(C)C(=O)[C@@H](NC(=O)[C@H](C(C)C)N(C)C(=O)OCc1ccc(NC(=O)[C@H](CCCNC(N)=O)NC(=O)[C@@H](NC(=O)CCOCCOCCC(=O)NCCNc2ncc(-c3cc(C)cc(F)c3)c(N3CCC(N)CC3)c2-c2nc3ccc(Cl)cc3[nH]2)C(C)C)cc1C(=O)NCCCCCCCCCCC(=O)O)C(C)C [Compound 75]	2.4 nM	0.21 nM	440 nM
CC[C@H](C)[C@@H]([C@@H](CC(=O)N1CCC[C@H]1[C@H](OC)[C@@H](C)C(=O)N[C@H](C)[C@@H](O)c1ccccc1)OC)N(C)C(=O)[C@@H](NC(=O)[C@H](C(C)C)N(C)C(=O)OCc1ccc(NC(=O)[C@H](CCCNC(N)=O)NC(=O)[C@@H](NC(=O)[C@@H](CS(=O)(=O)O)NC(=O)CCOCCC(=O)NCCNc2ncc(-c3cc(C)cc(F)c3)c(N3CCC(N)CC3)c2-c2nc3ccc(Cl)cc3[nH]2)C(C)C)cc1C(=O)N1CC(N)C1)C(C)C [Compound 76]	4.7 nM	0.075 nM	12 nM
CC[C@H](C)[C@@H]([C@@H](CC(=O)N1CCC[C@H]1[C@H](OC)[C@@H](C)C(=O)N[C@H](C)[C@@H](O)c1ccccc1)OC)N(C)C(=O)[C@@H](NC(=O)[C@H](C(C)C)N(C)C(=O)OCc1ccc(NC(=O)[C@H](CCCNC(N)=O)NC(=O)[C@@H](NC(=O)[C@@H](CS(=O)(=O)O)NC(=O)CCOCCC(=O)NCCNc2ncc(-c3cc(C)cc(F)c3)c(N3CCC(N)CC3)c2-c2nc3ccc(Cl)cc3[nH]2)C(C)C)cc1C(=O)N1CC(C(=O)O)C1)C(C)C [Compound 77]	4.2 nM	0.092 nM	130 nM
CC[C@H](C)[C@@H]([C@@H](CC(=O)N1CCC[C@H]1[C@H](OC)[C@@H](C)C(=O)N[C@H](C)[C@@H](O)c1ccccc1)OC)N(C)C(=O)[C@@H](NC(=O)[C@H](C(C)C)N(C)C(=O)OCc1ccc(NC(=O)[C@H](C)NC(=O)[C@@H](NC(=O)[C@@H](CS(=O)(=O)O)NC(=O)CCOCCC(=O)NCCNc2ncc(-c3cc(C)cc(F)c3)c(N3CCC(N)CC3)c2-c2nc3ccc(Cl)cc3[nH]2)C(C)C)cc1C(=O)N1CC(C(=O)O)C1)C(C)C [Compound 78]	8.7 nM	0.22 nM	350 nM
CC[C@H](C)[C@@H]([C@@H](CC(=O)N1CCC[C@H]1[C@H](OC)[C@@H](C)C(=O)N[C@H](C)[C@@H](O)c1ccccc1)OC)N(C)C(=O)[C@@H](NC(=O)[C@H](C(C)C)N(C)C(=O)OCc1ccc(NC(=O)[C@H](CCCNC(N)=O)NC(=O)[C@@H](NC(=O)[C@H](CCC(=O)O)NC(=O)CCOCCC(=O)NCCNc2ncc(-c3cc(C)cc(F)c3)c(N3CCC(N)CC3)c2-c2nc3cc(F)cc(OC)c3[nH]2)C(C)C)cc1C(=O)NCCN)C(C)C [Compound 79]	5.1 nM	0.12 nM	7.7 nM
